The subject of this test is Aβ1-42 production. Nature of the test: Cellular assay for inhibition of Aβ1-42 production (H4 APP751 SWE clone 8.20). Particulars: H4 APP751 SWE clone 8.20 cells, 19 h incubation. Type of test: cell-based. In outline: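 Viewlux signal read-out; IC50 by curve fit. Sandwich: 565 anti-Aβ42 neoepitope (Wallac conjugate, 0.8 ng/well) + 26D6 anti-N-terminus (APC, 75 ng/well), in Tris-HCl 40 mM pH 7.4/0.2% BSA, o/n 4 °C. Cells exposed to compound 19 h, 37 °C, 5% CO2.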

Setting [1] is: 19 h, read-out: Activity Rating (Aβ42 cellular IC50), numeric value.
[2] abbreviates: 19 h, class symbols, read-out: Activity Rating (Aβ42 cellular IC50).
[3] abbreviates: class symbols, read-out: Activity Rating (Aβ42 cellular IC50).

The structures appear in SMILES notation. Where a name gives a salt, the structure may show the parent alone. Read-outs that look alike come from different tables or passages of the source.

In the case of `CCNc1nc(Nc2ccc(-n3cnc(Cl)c3)c(OC)c2)nc2c1CCN(C(C)=O)C2c1ccc(F)cc1` (stereo not drawn) [Example 171, 1-(2-(4-(4-chloro-1H-imidazol-1-yl)-3-methoxyphenylamino)-4-(ethylamino)-8-(4-fluorophenyl)-5,6-dihydropyrido[3,4-d]pyrimidin-7(8H)-yl)ethanone], the IC50 (commonly the concentration that gives 50% inhibition) under setting [1] came to 16 nM.
For `CCNc1nc(Nc2ccc(-n3cnc(Cl)c3)c(OC)c2)nc2c1COCC2c1cc(F)cc(F)c1` (racemic) [Example 112, N2-(4-(4-chloro-1H-imidazol-1-yl)-3-methoxyphenyl)-8-(3,5-difluorophenyl)-N4-ethyl-7,8-dihydro-5H-pyrano[4,3-d]pyrimidine-2,4-diamine, TFA], the 50% inhibitory concentration (IC50) under setting [2] was 1.5 to 9.9 nM.
Still for that read-out and setting: with `COc1cc(Nc2nc3c(c(N(C)C)n2)CCC3c2ccccc2)ccc1-n1cnc(Cl)c1` (stereo not drawn) [Example 4, N^2-(4-(4-Chloro-1H-imidazol-1-yl)-3-methoxyphenyl)-N^4,N^4-dimethyl-7-phenyl-6,7-dihydro-5H-cyclopenta[d]pyrimidine-2,4-diamine] the figure was 1.5 to 9.9 nM.
On to `CCNc1nc(Nc2ccc(-n3cnc(Cl)c3)c(OC)c2)nc2c1CN(S(=O)(=O)CC)CC2c1ccccc1` (stereo not drawn) [Example 138, N2-(4-(4-chloro-1H-imidazol-1-yl)-3-methoxyphenyl)-N4-ethyl-6-(ethylsulfonyl)-8-phenyl-5,6,7,8-tetrahydropyrido[4,3-d]pyrimidine-2,4-diamine], for which the IC50 under setting [3] lay within 10 to 100 nM.
As for `CCNc1nc(Nc2ccc(-n3ncnc3C)c(F)c2)nc2c1CN(CC(F)(F)F)CC2c1ccccc1` (stereo not drawn) [Example 146, N4-ethyl-N2-(3-fluoro-4-(5-methyl-1H-1,2,4-triazol-1-yl)phenyl)-8-phenyl-6-(2,2,2-trifluoroethyl)-5,6,7,8-tetrahydropyrido[4,3-d]pyrimidine-2,4-diamine], the IC50 under setting [2] lay within 10 to 100 nM.
As for `COc1cc(Nc2nc3c(c(N4CC(F)(F)C4)n2)COCC3c2ccc(Cl)cc2)ccc1-n1cnc(Cl)c1` (single isomer, unassigned) [Example 66B, N-(4-(4-chloro-1H-imidazol-1-yl)-3-methoxyphenyl)-8-(4-chlorophenyl)-4-(3,3-difluoroazetidin-1-yl)-7,8-dihydro-5H-pyrano[4,3-d]pyrimidin-2-amine], the IC50 under setting [3] fell in the range of 1.5 to 9.9 nM.
In the case of `COc1cc(Nc2nc3c(c(N4CC(F)(F)C4)n2)COCC3c2ccc(F)c(F)c2)ccc1-n1cnc(Cl)c1` (stereo not drawn) [Example 114A, N-(4-(4-chloro-1H-imidazol-1-yl)-3-methoxyphenyl)-4-(3,3-difluoroazetidin-1-yl)-8-(3,4-difluorophenyl)-7,8-dihydro-5H-pyrano[4,3-d]pyrimidin-2-amine], the IC50 under setting [3] fell in the range of 10 to 100 nM.
Consider `CCNc1nc(Nc2ccc(-n3cnc(C)n3)c(F)c2)nc2c1CN(CC(F)F)CC2c1ccccc1` (stereo not drawn) [Example 195B, 6-(2,2-difluoroethyl)-N4-ethyl-N2-(3-fluoro-4-(3-methyl-1H-1,2,4-triazol-1-yl)phenyl)-8-phenyl-5,6,7,8-tetrahydropyrido[4,3-d]pyrimidine-2,4-diamine], for which the 50% inhibitory concentration (IC50) under setting [2] is 100 to 1000 nM.
As to `CNc1nc(Nc2ccc(-n3cnc(Cl)c3)c(OC)c2)nc2c1CCC2c1ccc(OC(F)(F)F)cc1` (single isomer, unassigned) [Example 97B, N^2-(4-(4-chloro-1H-imidazol-1-yl)-3-methoxyphenyl)-N^4-methyl-7-(4-(trifluoromethoxy)phenyl)-6,7-dihydro-5H-cyclopenta[d]pyrimidine-2,4-diamine], under setting [3], the IC50 lay in the range of 10 to 100 nM.
On the same count and under the same terms, with `CNc1nc(Nc2ccc(-n3ncnc3C)c(F)c2)nc2c1CCC2c1ccc(F)cc1` (single isomer, unassigned) [Example 26B, N^2-(3-fluoro-4-(5-methyl-1H-1,2,4-triazol-1-yl)phenyl)-7-(4-fluorophenyl)-N^4-methyl-6,7-dihydro-5H-cyclopenta[d]pyrimidine-2,4-diamine] the figure was 10 to 100 nM; with `CNc1nc(Nc2ccc(-n3cnc(C)c3)c(OC)c2)nc2c1COCC2c1ccc(Cl)cc1` (single isomer, unassigned) [Example 70B, 8-(4-chlorophenyl)-N^2-(3-methoxy-4-(4-methyl-1H-imidazol-1-yl)phenyl)-N^4-methyl-7,8-dihydro-5H-pyrano[4,3-d]pyrimidine-2,4-diamine], 10 to 100 nM; with `CNc1nc(Nc2ccc(-n3ncnc3C)c(F)c2)nc2c1CCC2c1ccccc1` (single isomer, unassigned) [Example 3A, N^2-(3-fluoro-4-(5-methyl-1H-1,2,4-triazol-1-yl)phenyl)-N^4-methyl-7-phenyl-6,7-dihydro-5H-cyclopenta[d]pyrimidine-2,4-diamine], 1.5 to 9.9 nM.
Take `CNc1nc(Nc2ccc(-n3cnc(C)n3)c(F)c2)nc2c1CCC2c1ccc(F)cc1` (stereo not drawn) [Example 35, N^2-(3-fluoro-4-(3-methyl-1H-1,2,4-triazol-1-yl)phenyl)-7-(4-fluorophenyl)-N^4-methyl-6,7-dihydro-5H-cyclopenta[d]pyrimidine-2,4-diamine]: the IC50 under setting [2] fell in the range of 1.5 to 9.9 nM.
The same measure, in the same setting: the figure for `CCNc1nc(Nc2ccc(-n3cnc(Cl)c3)c(OC)c2)nc2c1COCC2c1ccc(C#N)cc1` (stereo not drawn) [Example 121A, 4-(2-(4-(4-chloro-1H-imidazol-1-yl)-3-methoxyphenylamino)-4-(ethylamino)-7,8-dihydro-5H-pyrano[4,3-d]pyrimidin-8-yl)benzonitrile] is 1.5 to 9.9 nM; for `CCN(C)c1nc(Nc2ccc(-n3cnc(Cl)c3)c(OC)c2)nc2c1COCC2c1ccc(F)cc1` (racemic) [Example 62, N2-(4-(4-chloro-1H-imidazol-1-yl)-3-methoxyphenyl)-N4-ethyl-8-(4-fluorophenyl)-N4-methyl-7,8-dihydro-5H-pyrano[4,3-d]pyrimidine-2,4-diamine] it is 10 to 100 nM; for `CNc1nc(Nc2ccc(-n3ncnc3C)c(F)c2)nc2c1CCC2c1cc(F)c(F)c(F)c1` (stereo not drawn) [Example 104, N^2-(3-fluoro-4-(5-methyl-1H-1,2,4-triazol-1-yl)phenyl)-N^4-methyl-7-(3,4,5-trifluorophenyl)-6,7-dihydro-5H-cyclopenta[d]pyrimidine-2,4-diamine] it is 10 to 100 nM.
Regarding `CCNc1nc(Nc2ccc(-n3cnc(Cl)c3)c(OC)c2)nc2c1CN(C(C)=O)CC2c1ccccc1` (stereo not drawn) [Example 137, 1-(2-(4-(4-chloro-1H-imidazol-1-yl)-3-methoxyphenylamino)-4-(ethylamino)-8-phenyl-7,8-dihydropyrido[4,3-d]pyrimidin-6(5H)-yl)ethanone], the IC50 under setting [1] came out at 11 nM.
As for `COc1cc(Nc2nc3c(c(N4CC(C)(O)C4)n2)CCC3c2ccc(F)cc2)ccc1-n1cnc(Cl)c1` (stereo not drawn) [Example 189B, 1-(2-(4-(4-chloro-1H-imidazol-1-yl)-3-methoxyphenylamino)-7-(4-fluorophenyl)-6,7-dihydro-5H-cyclopenta[d]pyrimidin-4-yl)-3-methylazetidin-3-ol], the IC50 under setting [3] was 10 to 100 nM.
Same read-out and setting: with `CNc1nc(Nc2ccc(-n3cnc(C)n3)c(OC)c2)nc2c1COCC2c1ccc(F)cc1` (stereo not drawn) [Example 54B, 8-(4-fluorophenyl)-N2-(3-methoxy-4-(3-methyl-1H-1,2,4-triazol-1-yl)phenyl)-N4-methyl-7,8-dihydro-5H-pyrano[4,3-d]pyrimidine-2,4-diamine] the figure was 1.5 to 9.9 nM.
`CNc1nc(Nc2ccc(Br)cc2OC)nc2c1CCC2c1ccccc1` (stereo not drawn) [Example 221, N2-(4-bromo-2-methoxyphenyl)-N4-methyl-7-phenyl-6,7-dihydro-5H-cyclopenta[d]pyrimidine-2,4-diamine]: the IC50 under setting [2] is > 1000 nM.
As for `COc1cc(Nc2nc3c(c(N4C[C@@H]5C[C@H]4CO5)n2)CCC3c2ccc(F)cc2)ccc1-n1cnc(Cl)c1` (single isomer, unassigned) [Example 18A], under setting [1], the IC50 came out at 8.8 nM.
For `CCNc1nc(Nc2ccc(-n3cnc(Cl)c3)c(OC)c2)nc2c1CCN(S(C)(=O)=O)C2c1ccc(F)cc1` (stereo not drawn) [Example 168A, N2-(4-(4-chloro-1H-imidazol-1-yl)-3-methoxyphenyl)-N4-ethyl-8-(4-fluorophenyl)-7-(methylsulfonyl)-5,6,7,8-tetrahydropyrido[3,4-d]pyrimidine-2,4-diamine], under setting [2], the 50% inhibitory concentration (IC50) fell in the range of 1.5 to 9.9 nM.
As for `COc1cc(Nc2nc3c(c(N(C)C)n2)CCC3c2ccc(OC(F)(F)F)cc2)ccc1-n1cnc(Cl)c1` (single isomer, unassigned) [Example 100A, N^2-(4-(4-chloro-1H-imidazol-1-yl)-3-methoxyphenyl)-N^4,N^4-dimethyl-7-(4-(trifluoromethoxy)phenyl)-6,7-dihydro-5H-cyclopenta[d]pyrimidine-2,4-diamine], under setting [1], the IC50 worked out at 4.7 nM.
On to `CCNc1nc(Nc2ccc(-n3cnc(Cl)c3)c(OC)c2)nc2c1CN(S(C)(=O)=O)CC2c1ccccc1` (stereo not drawn) [Example 134, N2-(4-(4-chloro-1H-imidazol-1-yl)-3-methoxyphenyl)-N4-ethyl-6-(methylsulfonyl)-8-phenyl-5,6,7,8-tetrahydropyrido[4,3-d]pyrimidine-2,4-diamine], for which the IC50 under setting [2] lay in the range of 1.5 to 9.9 nM.
Take `COc1cc(Nc2nc(N[C@H](C)C3CC3)c3c(n2)C(c2ccc(F)cc2)CC3)ccc1-n1cnc(Cl)c1` (single isomer, unassigned) [Example 49A]: the IC50 under setting [3] fell in the range of 1.5 to 9.9 nM.
`COCC(Nc1nc(Nc2ccc(-n3cnc(Cl)c3)c(OC)c2)nc2c1CCC2c1ccc(F)cc1)C1CC1` (single isomer, unassigned) [Example 45D, N2-(4-(4-chloro-1H-imidazol-1-yl)-3-methoxyphenyl)-N4-(1-cyclopropyl-2-methoxyethyl)-7-(4-fluorophenyl)-6,7-dihydro-5H-cyclopenta[d]pyrimidine-2,4-diamine]: under setting [3], the IC50 was 1.5 to 9.9 nM.
Still for that read-out and setting: with `CCNc1nc(Nc2ccc(-n3cnc(Cl)c3)c(OC)c2)nc2c1CN(CC(F)(F)F)CC2c1ccccc1` (stereo not drawn) [Example 196A] the figure was 1.5 to 9.9 nM.

For the origin of these results see patent US8637525B2, “Compounds for the reduction of beta-amyloid production” (Bristol-Myers Squibb Company, priority 2009, dated 2014).
